Source: US20220330529A1, “METHODS FOR GENERATING ANIMAL MODELS FOR NONALCOHOLIC FATTY LIVER DISEASE” (INNOLAND BIOSCIENCES (ZHEJIANG) CO., LTD., priority 2019, published 2022)

Tests used:
[1] = tested on: mice model; conditions: high chemical dosage (0.8-1.0 ml/kg) required to generate liver fibrosis phenotype; cited from earlier work
[2] = tested on: MS-NASH mice; assay: Survival rate in MS-NASH mice on WDF under CCl4; assay type: in vivo, mouse
Description: (§1) All values are reported as Mean±SEM, unless noted otherwise. Model characterization were compared in MS-NASH mice on CD or WDF with or without CCl4; and effects of OCA were compared to vehicle with One-Way ANOVA for multiple groups or Holm-Sidak t-test for 2 groups. Survival curves of total MS-NASH mice and C57B1/6 mice were compared using Log-rank test for trend. Parametric correlation tests were conducted between pathologist scores and ImageDx quantitative analysis using Pearson correlation coefficient r. Statistical differences were denoted as p<0.05 or p<0.005. Prism software (GraphPad, version 8.3) was used for the statistical analysis and graphing.
(§2) This example illustrates survival rate in MS-NASH and C57B1/6 mice on WDF and treated high and low dose of CCL4.

[3] = tested on: MS-NASH mice; assay: Low dose CCl4 (0.08 mL/kg) twice weekly for 8 weeks in MS-NASH mice on WDF; assay type: in vivo, mouse; conditions: week 12 and 14, 3 days after CCl4 dosing, vs mice on WDF only
[4] = tested on: MS-NASH mice; assay: High dose CCl4 (0.2 mL/kg) twice weekly for 3 weeks in MS-NASH mice on WDF; assay type: in vivo, mouse
Excerpt: (§3) Male MS-NASH (formally FATZO) mice were developed by Crown Bioscience as the new generation of mouse model with obese, metabolic disorder, diabetes and NAFLD/NASH that is more translatable to human diseases. The animals for this study were bred housed individually in IVC cages (Taicang, China) or open ventilated cages (Indianapolis, Ind.), and fed control diet (CD, Purina 5008 chow, LabDiet, St. Louis, Mo.) with distilled water ad libitum for the first 8 weeks after birth, then, stratified into different experimental groups based on body weight, serum ALT and AST. Room temperature was monitored and maintained at 22-26° C. with a 12-hour light cycle (06:00-18:00). C57B1/6J mice (The Jackson Laboratory, Ellsworth, Maine) were used as control strain and housed under the same conditions. All mice were maintained and treated in accordance with the guidelines of Association for Assessment and Accreditation of Laboratory Animal Care (AAALAC), and experimental protocols approved by the Institutional Animal Care and Use Committee (IACUC).
(§4) In all the experiments, body weights were recorded every 4 weeks. At the end of the experiments, all mice were euthanized by CO2 inhalation and confirmed with cervical dislocation approximately 24 hours after the last CCl4 administration.
(§5) Blood samples: Blood samples during the course of the experiment were collected from the tail or at the end of the experiment from cardiac puncture, from which, serum prepared for measuring AST and ALT by a clinical analyzer (Beckman-Coulter AU480; Brea, Calif.). In the low dose CCl4 repeated treatment group, in-life blood samples were taken—24 hours, and terminal blood samples taken, —24 hours after CCl4 doing, respectively. A separate experiment was performed to observe the acute time course at 24, 48 and 72 hours in response to a single dose of CCl4 at 0.2 mL/kg in MS-NASH mice on CD.
(§6) Tissue processing: The liver tissues were fixed in 10% neutral buffered formalin (NBF) at 4° C. for 24 hours followed by baths of standard concentrations of alcohol then xylene to prepare the tissues for paraffin embedding. After being embedded in paraffin and cooled, five-micron sections were cut and stained for routine H&E and Picric Sirius Red.
(§7) Semi-quantitative scoring by a pathologist: The digital images were evaluated by a well-trained research pathologist blind of different study groups with the standard NASH criteria for semi-quantitative scoring commonly used in preclinical animal models and in patients. Hepatosteatosis, lobular inflammation, and hepatocyte balloon degeneration were scored individually from the H&E staining and then summarized as a standard NAFLD Activity Score (NAS). Fibrosis score was assessed systemically with pattern recognition from PSR staining. Three representative areas per liver were examined and the scores of each parameter from individual animal were averaged.
Computerized quantitative analysis: Computer software with […] (AI) machine learning algorithm for histology analysis from Halo (Indica Labs, Albuquerque, N. Mex.) or ImageDx (Reveal Biosciences, San Diego, Calif.) were used to analyze digitally scanned images of H&E and PSR staining for quantitative analysis of steatosis, ballooning, inflammation or fibrosis in a set of the same slides evaluated by the pathologist. The analysis process included automated tissue identification, followed by segmentation of regions of interest for quantification of the following metrics: 1) Steatosis percentage: the area of total lipid accumulation subcategorized micro- or macro-vesicular within the entire section area; 2) Ballooning hepatocyte density: the density of ballooning hepatocytes within the entire section area; 3) Inflammatory cell density: the total number of inflammatory cells within the entire section area. All 3 parameters above were analyzed in the H&E stained section. 4)Fibrosis percentage: the total fibrosis area within the entire section area in the PSR stained section. […]

[5] = tested on: MS-NASH mice; assay: Low dose CCl4 (0.08 mL/kg) twice weekly for 8 weeks in MS-NASH mice on WDF; assay type: in vivo, mouse
Excerpt: as §3, §4, §5
Liver contents: The right lobe of the liver (— 200 mg/animal) was collected and snap frozen in liquid nitrogen, placed in Lysing Matrix D Tubes with distilled water at 20% concentration (MP Biomedicals, Santa Anna, CA), homogenized in a Fastprep-FP120 cell disrupter (Thermo Fisher Savant) in cold condition for 30 seconds. The liver contents of triglyceride and cholesterol were analyzed by a clinical analyzer (Beckman-Coulter AU480) within 30 min of sample preparation.
as §6, §7
Computerized quantitative analysis: Computer software with […] (AI) machine learning algorithm for histology analysis from Halo (Indica Labs, Albuquerque, N. Mex.) or ImageDx (Reveal Biosciences, San Diego, Calif.) were used to analyze digitally scanned images of H&E and PSR staining for quantitative analysis of steatosis, ballooning, inflammation or fibrosis in a set of the same slides evaluated by the pathologist. […]

[6] = tested on: C57B1/6 mice; assay: Survival rate in C57B1/6 mice on WDF under CCl4; assay type: in vivo, mouse; conditions: low dose CCl4; C57B1/6 compared to MS-NASH mice; trend not statistically significant
Description: as §1, §2

[7] = tested on: MS-NASH mice; assay: Therapeutic effects of OCA in WDF fed MS-NASH mice treated low dose CCl4; assay type: in vivo, mouse; conditions: OCA 30 mg/kg orally once daily 8 weeks vs vehicle
Excerpt: as §3
(§8) In all the experiments, body weights were recorded every 4 weeks. […]
(§9) All values are reported as Mean±SEM, unless noted otherwise. […] Parametric correlation tests were conducted between pathologist scores and ImageDx quantitative analysis using Pearson correlation coefficient r. […]

[8] = tested on: C57B1/6 mice; assay: Therapeutic effects of OCA in WDF fed C57B1/6 mice treated low dose CCl4; assay type: in vivo, mouse; conditions: OCA 30 mg/kg orally once daily 8 weeks vs vehicle
Excerpt: as §3, §8, §9

[9] = CCl4 0.2 mL/kg IP twice weekly 3 weeks, vs CD or WDF without CCl4
[10] = CCl4 0.2 mL/kg twice weekly 3 weeks, MS-NASH mice on WDF
[11] = CCl4 0.2 mL/kg twice weekly 3 weeks, measured 24 hours after the last dose
[12] = CCl4 0.08 mL/kg twice weekly 8 weeks, WDF vs WDF+CCl4
[13] = CCl4 0.08 mL/kg twice weekly 8 weeks, end of study
[14] = CCl4 0.08 mL/kg twice weekly 8 weeks, with vs without CCl4
[15] = CCl4 0.08 mL/kg, 24 hours after the last dose at end of experiment, compared to high dose CCl4
[16] = WDF + CCl4 0.08 mL/kg twice weekly

ClC(Cl)(Cl)Cl [CCl4, carbon tetrachloride]
body weight [1]: severe body weight loss
death ([2]; high dose CCl4 (0.2 mL/kg twice weekly), within the first 3 weeks): ~20%
survival rate ([2]; lower dose CCl4 (0.08 mL/kg twice weekly), end of 8-week experimental duration): 87.5%
in-life serum ALT level [3]: significantly lower
in-life serum AST level [3]: significantly lower
caloric intake [4, 9]: significantly reduced
food intake [4, 9]: significantly reduced
body weight ([4]; CCl4 0.2 mL/kg IP twice weekly 3 weeks, vs MS-NASH mice on CD or WDF without CCl4): significantly reduced
fibrosis area by computer analysis software (Halo) from PSR images [4, 10]: ~8%
histopathology images (H&E, PSR) [4, 10]: aggravated liver injury and centrilobular fibrosis
pathology scores by the pathologist (steatosis, inflammation, ballooning, overall NAS, fibrosis score) [4, 10]: failed to detect such enhanced pathology
serum ALT [4, 11]: dramatically elevated
serum AST [4, 11]: dramatically elevated
liver fibrosis score evaluated by the pathologist [5, 12]: significantly aggravated
other aspects of liver pathology (NAS scores by the pathologist) [5, 12]: little influence
liver contents of cholesterol [5, 13]: significantly reduced
liver weight [5, 13]: significantly reduced
body weight ([5]; CCl4 0.08 mL/kg twice weekly 8 weeks, vs mice without CCl4): reduced
fibrosis area by Reveal ImageDx [5, 14]: larger
steatosis area, inflammatory cell infiltration and degenerated liver cell counts by Reveal ImageDx [5, 14]: no significant difference
elevation of serum ALT [5, 15]: not as dramatic
elevation of serum AST [5, 15]: not as dramatic
NAFLD progression and fibrosis development ([5]; MS-NASH mice fed WDF with 0.08 ml/kg CCl4): accelerated
survival rate [6]: tended to be lower

CC[C@H]1[C@@H](O)[C@@H]2[C@H](CC[C@]3(C)[C@@H]([C@H](C)CCC(=O)O)CC[C@@H]23)[C@@]2(C)CC[C@@H](O)C[C@@H]12 [OCA, obeticholic acid]
serum ALT level [7]: no significant effect
body weight [7, 16]: no significant effect
serum ALT level [8]: no significant effect
body weight [8, 16]: no significant effect
